# According to ChEMBL document CHEMBL1201862, “PubChem BioAssay data set” (2004):
# Active and inactive are the calls of the source.
# What was measured:
# [1] = target: Glyceraldehyde-3-phosphate dehydrogenase (Homo sapiens, UniProt P04406)
# Bcl-2-related protein A1 [2] = target: T1, Bcl-2-related protein A1 (Mus musculus, UniProt Q07440); test: Bfl-1 inhibitors blocking BH3 peptide binding, confirmation, biochemical, TR-FRET, mouse Bfl-1 (AID 621);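 also: TR-FRET binding of GST-Bfl-1 to FITC-labelled Bid peptide via terbium antibody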
# T1 sequence (Q07440 whole entry): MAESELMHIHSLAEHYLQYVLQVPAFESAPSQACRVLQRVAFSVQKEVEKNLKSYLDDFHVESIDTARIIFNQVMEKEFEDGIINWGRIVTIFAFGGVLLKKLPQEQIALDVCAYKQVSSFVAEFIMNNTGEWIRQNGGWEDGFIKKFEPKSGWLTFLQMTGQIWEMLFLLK
# Bcl-2-related protein A1 [3] = target: T1, Bcl-2-related protein A1; test: Bfl-1 binding inhibitors, SAR follow-up, biochemical, fluorescence polarization (AID 1070)
# [4] = target: Protein-tyrosine kinase 2-beta (Homo sapiens, UniProt Q14289);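 also: potency of inhibitors of PYK2 kinase phosphorylation of poly-GT substrate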
# [5] = target: Potassium voltage-gated channel subfamily KQT member 2 (Rattus norvegicus, UniProt O88943, W236L); test: KCNQ2 channel potentiators, dose response, mechanism study for KCNQ2 potentiator project, cell-based, automated electrophysiology (AID 2603); type: functional
# [6] = Luminescence Cell-Based Dose Response to Identify Activators of 5'UTR Stem-Loop Driven Prion Protein mRNA Translation in H4-C Neuroglioblastoma Cells. [Related pubchem assays: 1829 (Project Summary), 1814 (Primary HTS)]; type: functional
# [7] = Luminescence Cell-Based Dose Response HTS to Identify Activators of Luciferase Translation or Activity in H4 […] Cells. [Related pubchem assays: 1829 (Project Summary), 1814 (Primary HTS)]; type: functional
# H4 = test: Luminescence Cell-Based Dose Response HTS to Identify Activators of 5'UTR Stem-Loop Driven Prion Protein mRNA Translation in H4 Neuroglioblastoma Cells. [Related pubchem assays: 1829 (Project Summary), 1814 (Primary HTS)]; type: functional; details: Homo sapiens
# [8] = Luminescence Cell-Based Dose Response to Identify Activators of Luciferase Translation or Activity in H4-C Neuroglioblastoma Cells. [Related pubchem assays: 1829 (Project Summary), 1814 (Primary HTS)]; type: functional
# [9] = Luminescence Cell-Based Dose Confirmation to Identify Activators of 5'UTR Stem-Loop Driven Alpha-Synuclein mRNA Translation in H4 Neuroglioblastoma Cells. [Related pubchem assays: 1829 (Project Summary), 1814 (Primary HTS)]; type: functional
# [10] = target: T2, E3 ubiquitin-protein ligase XIAP (Homo sapiens, UniProt P98170); test: Counter Screen using XIAP-Bir3 for Chemical Antagonists of Bir1/2 domains of IAP-family anti-apoptotic proteins. [Related pubchem assays (depositor defined):AID1018, AID1449, AID1514, AID1638, AID1749, AID1750, AID488957, AID488963]
# [11] = target: T2, E3 ubiquitin-protein ligase XIAP; test: XIAP antagonists, biochemical, IAP family, fluorescence polarization (AID 1018); type: functional
# [12] = target: T3, Induced myeloid leukemia cell differentiation protein Mcl-1 (Homo sapiens, UniProt Q07820); test: MCL1-BIM BH3 interaction inhibitors, dose response, biochemical, fluorescence polarization, BIM-BH3 peptide, 1536-well (AID 2217)
# Bcl-2-like protein 1 = Bcl-2-like protein 1 (Homo sapiens, UniProt Q07817); test: BCL-XL inhibitors, dose response, selectivity assay for MCL1 inhibitor project, biochemical, fluorescence polarization, 1536-well (AID 2218)
# [13] = target: T4, Carboxy-terminal domain RNA polymerase II polypeptide A small phosphatase 1 (Homo sapiens, UniProt Q9GZU7); test: inhibitors of CTDSP1, concentration-response testing, biochemical assay, absorbance-based, actives from ultra-high-throughput screening (AID 540297); type: functional
# T4 sequence (Q9GZU7 whole entry): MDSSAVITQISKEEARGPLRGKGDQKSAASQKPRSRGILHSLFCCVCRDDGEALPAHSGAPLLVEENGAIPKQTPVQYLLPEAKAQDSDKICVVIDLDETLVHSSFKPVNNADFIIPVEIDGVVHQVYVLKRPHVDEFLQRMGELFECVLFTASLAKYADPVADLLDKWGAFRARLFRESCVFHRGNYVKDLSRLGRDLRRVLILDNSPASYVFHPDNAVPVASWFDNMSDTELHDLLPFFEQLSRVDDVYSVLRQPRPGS
# Caspase-6 = target: T5, Caspase-6 (Homo sapiens, UniProt P55212); test: human caspase-6 inhibitors, dose response, biochemical, VEID-R110 fluorescence, cherry-pick (AID 720632)
# T5 sequence (P55212 whole entry): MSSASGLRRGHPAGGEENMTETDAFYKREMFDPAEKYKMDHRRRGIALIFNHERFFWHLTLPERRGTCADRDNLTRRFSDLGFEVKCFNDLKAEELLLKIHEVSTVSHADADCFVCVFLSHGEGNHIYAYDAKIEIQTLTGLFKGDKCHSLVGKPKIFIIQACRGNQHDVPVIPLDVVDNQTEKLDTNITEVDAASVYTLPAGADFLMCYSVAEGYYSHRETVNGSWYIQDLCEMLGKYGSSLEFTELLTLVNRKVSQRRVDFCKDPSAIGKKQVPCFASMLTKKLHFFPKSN
# Caspase-7 = Caspase-7 (Homo sapiens, UniProt P55210); test: human caspase-7 inhibitors, dose response, selectivity assay for caspase-6 inhibitor project, biochemical, DEVD-R110 fluorescence, cherry-pick (AID 743295)
# Caspase-8 = Caspase-8 (Homo sapiens, UniProt Q14790); test: caspase-8 inhibition counter-screen, dose response, selectivity assay for caspase-6 inhibitor project, biochemical, Z-IETD-R110 fluorescence, cherry-picked samples (AID 743294)
# [14] = target: Peroxisome proliferator-activated receptor gamma/Nuclear receptor corepressor 2 (Homo sapiens, UniProt P37231+Q9Y618); test: Counterscreen for NR2E3 inverse agonists: TR-FRET-based biochemical high throughput dose response assay to identify inverse agonists of the interaction between peroxisome proliferator-activated receptor gamma (PPARg) and nuclear receptor co-repressor 2 (NCOR2).; type: functional
# [15] = target: Photoreceptor-specific nuclear receptor (Homo sapiens, UniProt Q9Y5X4); test: NR2E3 inverse agonists, dose response, biochemical, TR-FRET (AID 463256); type: functional
# [16] = target: T6, Small ubiquitin-related modifier 1 (Homo sapiens, UniProt P63165); test: inhibitors of SUMO1 peptide binding, dose response, biochemical, fluorescence polarization, uHTS hits (AID 624382); type: functional; details: read-out: IC50_Mean
# [17] = target: T6, Small ubiquitin-related modifier 1; test: inhibitors of SUMO1 partner interactions, dose response, biochemical, FRET (AID 624383); type: functional; details: read-out: IC50_Mean
# [18] = inhibitors of intracellular T. cruzi replication, confirmation, NIH3T3 host cells, beta-gal luminescence (AID 2044); type: functional, cell-based;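 also: intracellular parasites grown in NIH/3T3 mouse fibroblasts as host cells; luminescent beta-galactosidase reporter signal from transgenic T. cruzi replicating inside host cells; inhibitors lower the luminescence signal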
# [19] = cytotoxicity toward NIH3T3 fibroblasts, dose response, counter-screen, cell-based, ATP luminescence, mouse fibroblasts (AID 2010); type: functional;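 also: cells exposed to compound for about 90 hours before reading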
# cells [20] = type: functional
# cells [21] = test: cells
# [22] = Luminescent dose response cell-based high throughput screening assay for inhibitors of the Janus kinase 2 mutant JAK2V617F. [Related pubchem assays: 1446 (Primary screen.), 1521 (Confirmation assay.), 1486 (Counter screen.)]; type: functional
# [23] = cytotoxicity in HPDE-C7 cells, cell-based, fluorescence, HTS (AID 430); type: functional; details: Homo sapiens
# [24] = cytotoxicity in KRAS-transformed pancreatic duct cells, primary screen, cell-based, fluorescence, HTS (AID 431); type: functional; details: Homo sapiens;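 also: cell line used: HPDE-C7K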
# [25] = target: Sphingosine 1-phosphate receptor 2 (Homo sapiens, UniProt O95136); test: Dose Response Cell Based Assay for Agonists of the S1P2 Receptor of Purchased Analogues. [Related pubchem assays: 729, 843, 854, 736 ]; type: functional
# [26] = enhancers of respiration in Yfh1-depleted yeast, dose response, Friedreich's ataxia, plus single-dose screen (AID 1465); type: functional;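 also: yeast depleted of Yfh1p frataxin homolog grown on glycerol needing respiration; WST-1 tetrazolium dye reduction as measure of cellular dehydrogenase metabolic activity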
# [27] = target: T7, Heat shock factor protein 1 (Mus musculus, UniProt P38532); test: HSF1 potentiators in luciferase reporter cells, confirmation, cell-based, NIH3T3, luminescence, dose retest (AID 435004); type: functional;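 also: stress induced by proteasome inhibitor MG132 added 30 min after compound; luciferase reporter driven by HSF1 response element in NIH3T3 cells; actives raise luminescence as potentiators of the MG132 stress response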
# T7 sequence (P38532 whole entry): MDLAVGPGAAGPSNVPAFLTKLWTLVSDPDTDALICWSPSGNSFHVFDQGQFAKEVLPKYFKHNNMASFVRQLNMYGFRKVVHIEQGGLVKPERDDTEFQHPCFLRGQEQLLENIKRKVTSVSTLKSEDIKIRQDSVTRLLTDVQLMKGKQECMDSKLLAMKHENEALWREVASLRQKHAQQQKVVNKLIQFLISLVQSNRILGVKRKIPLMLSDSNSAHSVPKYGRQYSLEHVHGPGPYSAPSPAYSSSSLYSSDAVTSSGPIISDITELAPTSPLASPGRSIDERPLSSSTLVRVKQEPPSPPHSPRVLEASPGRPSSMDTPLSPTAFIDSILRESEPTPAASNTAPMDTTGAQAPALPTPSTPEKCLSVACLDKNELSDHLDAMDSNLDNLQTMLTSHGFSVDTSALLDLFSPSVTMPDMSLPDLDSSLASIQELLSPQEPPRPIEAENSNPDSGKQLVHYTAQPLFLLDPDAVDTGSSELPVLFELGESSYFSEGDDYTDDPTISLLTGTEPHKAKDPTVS
# [28] = target: T8, Microphthalmia-associated transcription factor (Homo sapiens, UniProt O75030); test: TRPM1 promoter luciferase signal decrease, dose response, MITF inhibitor project, cell-based, SK-MEL-5, cherry-picked, set 3 (AID 493073); type: functional
# T8 sequence (O75030 whole entry): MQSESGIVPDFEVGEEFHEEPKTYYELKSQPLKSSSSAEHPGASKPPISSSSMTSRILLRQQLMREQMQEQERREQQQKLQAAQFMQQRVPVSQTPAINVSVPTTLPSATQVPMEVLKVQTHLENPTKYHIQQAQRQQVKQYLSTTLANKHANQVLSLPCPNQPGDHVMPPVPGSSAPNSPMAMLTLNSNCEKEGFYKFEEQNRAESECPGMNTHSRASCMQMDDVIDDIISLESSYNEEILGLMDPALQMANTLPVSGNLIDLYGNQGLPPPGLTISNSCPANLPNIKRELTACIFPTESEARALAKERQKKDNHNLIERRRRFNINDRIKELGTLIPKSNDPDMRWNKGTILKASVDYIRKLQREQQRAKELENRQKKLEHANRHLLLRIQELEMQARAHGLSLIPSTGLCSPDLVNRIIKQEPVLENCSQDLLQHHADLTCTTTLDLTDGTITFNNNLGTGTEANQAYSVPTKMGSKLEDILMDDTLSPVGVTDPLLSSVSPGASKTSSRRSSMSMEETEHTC
# Oxytocin receptor = Oxytocin receptor (Homo sapiens, UniProt P30559); test: Fluorescence-based cell-based high throughput dose response assay for potentiators of Oxytocin Receptor (OXTR). [Related pubchem assays: 434985 (Confirmation screen (OXTR potentiators in triplicate)), 2481 (Summary (OXTR potentiators)), 2445 (Primary screen (OXTR potentiators in singlicate))]; type: functional
# Vero [29] = test: host cell cytotoxicity of antiviral hits, dose response, cytotoxicity control for West Nile virus antiviral project, secondary assay (AID 1650); type: functional; details: Chlorocebus sabaeus
# Vero [30] = test: West Nile virus antiviral activity, cell-based, CPE readout (AID 1621); type: functional; details: Chlorocebus sabaeus
# [31] = target: T3, Induced myeloid leukemia cell differentiation protein Mcl-1; type: functional
# [32] = Luminescence Cell-Based Dose Retest to Confirm Inhibitors of Cancer Stem Cells. [Related pubchem assays (depositor defined):AID2717, AID2721]; type: functional; details: Homo sapiens
# T6 sequence (P63165 whole entry): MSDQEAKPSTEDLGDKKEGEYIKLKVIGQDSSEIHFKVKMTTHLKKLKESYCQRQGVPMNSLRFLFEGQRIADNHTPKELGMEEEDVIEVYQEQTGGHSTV
# T3 sequence (Q07820 whole entry): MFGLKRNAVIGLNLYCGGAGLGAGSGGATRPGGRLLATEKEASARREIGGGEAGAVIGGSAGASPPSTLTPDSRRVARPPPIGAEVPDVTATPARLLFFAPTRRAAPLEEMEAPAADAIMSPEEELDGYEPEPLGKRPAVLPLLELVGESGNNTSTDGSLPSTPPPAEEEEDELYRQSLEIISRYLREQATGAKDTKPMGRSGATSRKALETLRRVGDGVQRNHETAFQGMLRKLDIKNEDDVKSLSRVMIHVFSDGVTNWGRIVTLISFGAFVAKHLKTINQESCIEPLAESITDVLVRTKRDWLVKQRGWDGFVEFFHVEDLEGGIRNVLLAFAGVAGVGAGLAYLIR
# T2 sequence (P98170 whole entry): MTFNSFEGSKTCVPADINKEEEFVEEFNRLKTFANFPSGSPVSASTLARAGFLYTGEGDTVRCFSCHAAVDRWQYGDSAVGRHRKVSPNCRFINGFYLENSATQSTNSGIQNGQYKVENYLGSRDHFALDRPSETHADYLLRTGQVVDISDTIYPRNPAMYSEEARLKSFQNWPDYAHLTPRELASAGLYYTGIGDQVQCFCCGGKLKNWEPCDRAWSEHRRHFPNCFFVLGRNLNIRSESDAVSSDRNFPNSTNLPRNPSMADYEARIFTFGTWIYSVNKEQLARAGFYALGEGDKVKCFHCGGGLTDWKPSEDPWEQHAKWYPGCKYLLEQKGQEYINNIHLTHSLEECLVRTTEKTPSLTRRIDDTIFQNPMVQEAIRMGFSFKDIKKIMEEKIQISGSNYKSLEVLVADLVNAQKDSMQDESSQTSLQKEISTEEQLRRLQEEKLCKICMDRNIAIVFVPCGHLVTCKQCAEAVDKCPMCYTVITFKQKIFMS
# Sequence of Sphingosine 1-phosphate receptor 2 (O95136 whole entry): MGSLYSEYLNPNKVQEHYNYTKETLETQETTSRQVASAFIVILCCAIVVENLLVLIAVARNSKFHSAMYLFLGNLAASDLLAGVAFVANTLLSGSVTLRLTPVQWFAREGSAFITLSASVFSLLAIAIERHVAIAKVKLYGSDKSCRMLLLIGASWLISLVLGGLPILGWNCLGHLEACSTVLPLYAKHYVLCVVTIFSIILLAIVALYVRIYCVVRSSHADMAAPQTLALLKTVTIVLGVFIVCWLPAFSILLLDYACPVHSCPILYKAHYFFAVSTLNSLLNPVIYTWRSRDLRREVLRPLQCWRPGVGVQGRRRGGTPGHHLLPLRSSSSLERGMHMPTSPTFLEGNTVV
# Sequence of Caspase-7 (P55210 24-198 limits assumed): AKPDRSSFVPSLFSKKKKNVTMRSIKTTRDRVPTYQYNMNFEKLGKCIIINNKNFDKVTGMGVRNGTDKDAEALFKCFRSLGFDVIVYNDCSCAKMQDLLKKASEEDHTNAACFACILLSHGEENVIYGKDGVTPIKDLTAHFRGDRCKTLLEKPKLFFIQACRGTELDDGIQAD
# Sequence of Caspase-7 (P55210 207-303 limits assumed): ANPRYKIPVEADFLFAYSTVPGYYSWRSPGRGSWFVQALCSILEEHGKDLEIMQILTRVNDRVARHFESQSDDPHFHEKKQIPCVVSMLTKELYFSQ
# Sequence of Glyceraldehyde-3-phosphate dehydrogenase (P04406 whole entry): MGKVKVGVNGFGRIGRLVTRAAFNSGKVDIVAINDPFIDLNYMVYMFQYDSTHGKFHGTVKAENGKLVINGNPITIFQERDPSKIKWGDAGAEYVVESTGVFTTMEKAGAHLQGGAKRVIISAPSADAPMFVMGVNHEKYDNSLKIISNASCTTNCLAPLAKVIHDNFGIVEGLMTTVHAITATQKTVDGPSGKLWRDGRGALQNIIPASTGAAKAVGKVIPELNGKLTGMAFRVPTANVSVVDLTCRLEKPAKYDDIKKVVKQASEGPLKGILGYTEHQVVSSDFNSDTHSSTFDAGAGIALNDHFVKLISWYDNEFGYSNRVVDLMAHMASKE
# Sequence of Oxytocin receptor (P30559 whole entry): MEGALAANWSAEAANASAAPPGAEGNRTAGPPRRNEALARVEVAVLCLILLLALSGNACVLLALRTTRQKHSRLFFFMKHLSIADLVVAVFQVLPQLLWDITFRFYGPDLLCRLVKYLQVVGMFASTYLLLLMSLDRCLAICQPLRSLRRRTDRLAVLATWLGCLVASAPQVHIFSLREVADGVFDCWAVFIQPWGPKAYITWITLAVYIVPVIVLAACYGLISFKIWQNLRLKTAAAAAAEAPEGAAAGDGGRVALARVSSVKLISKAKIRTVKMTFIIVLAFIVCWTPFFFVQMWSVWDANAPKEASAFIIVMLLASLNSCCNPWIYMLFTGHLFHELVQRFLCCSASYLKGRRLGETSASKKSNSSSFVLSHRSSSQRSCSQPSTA
# Sequence of Protein-tyrosine kinase 2-beta (Q14289 whole entry): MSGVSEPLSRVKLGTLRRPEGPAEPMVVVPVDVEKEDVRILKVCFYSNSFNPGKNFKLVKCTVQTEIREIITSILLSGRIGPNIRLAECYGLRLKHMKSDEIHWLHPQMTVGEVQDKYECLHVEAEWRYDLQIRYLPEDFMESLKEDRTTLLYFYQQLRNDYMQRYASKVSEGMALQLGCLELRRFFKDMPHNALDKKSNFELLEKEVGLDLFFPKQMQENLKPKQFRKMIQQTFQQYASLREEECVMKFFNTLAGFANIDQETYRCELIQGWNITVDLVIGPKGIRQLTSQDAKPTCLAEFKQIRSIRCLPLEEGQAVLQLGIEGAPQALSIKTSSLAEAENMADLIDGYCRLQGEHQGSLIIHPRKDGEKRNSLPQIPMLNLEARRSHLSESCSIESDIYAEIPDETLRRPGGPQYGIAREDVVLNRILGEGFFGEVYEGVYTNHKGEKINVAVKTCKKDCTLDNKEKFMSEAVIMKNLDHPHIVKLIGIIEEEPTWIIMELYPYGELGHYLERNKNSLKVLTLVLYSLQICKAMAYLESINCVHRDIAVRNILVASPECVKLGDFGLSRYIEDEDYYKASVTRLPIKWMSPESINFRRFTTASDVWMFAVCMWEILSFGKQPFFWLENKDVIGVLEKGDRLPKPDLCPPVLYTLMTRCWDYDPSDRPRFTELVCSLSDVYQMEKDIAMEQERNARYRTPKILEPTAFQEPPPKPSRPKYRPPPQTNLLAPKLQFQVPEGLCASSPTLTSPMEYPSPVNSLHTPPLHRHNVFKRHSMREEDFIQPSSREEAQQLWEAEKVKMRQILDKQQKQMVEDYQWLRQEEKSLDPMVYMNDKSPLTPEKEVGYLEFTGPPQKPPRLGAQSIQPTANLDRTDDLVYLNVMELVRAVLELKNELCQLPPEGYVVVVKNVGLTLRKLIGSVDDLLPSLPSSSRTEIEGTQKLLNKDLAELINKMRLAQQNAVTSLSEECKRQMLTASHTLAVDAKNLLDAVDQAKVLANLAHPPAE
# Sequence of Potassium voltage-gated channel subfamily KQT member 2 (O88943 whole entry W236L): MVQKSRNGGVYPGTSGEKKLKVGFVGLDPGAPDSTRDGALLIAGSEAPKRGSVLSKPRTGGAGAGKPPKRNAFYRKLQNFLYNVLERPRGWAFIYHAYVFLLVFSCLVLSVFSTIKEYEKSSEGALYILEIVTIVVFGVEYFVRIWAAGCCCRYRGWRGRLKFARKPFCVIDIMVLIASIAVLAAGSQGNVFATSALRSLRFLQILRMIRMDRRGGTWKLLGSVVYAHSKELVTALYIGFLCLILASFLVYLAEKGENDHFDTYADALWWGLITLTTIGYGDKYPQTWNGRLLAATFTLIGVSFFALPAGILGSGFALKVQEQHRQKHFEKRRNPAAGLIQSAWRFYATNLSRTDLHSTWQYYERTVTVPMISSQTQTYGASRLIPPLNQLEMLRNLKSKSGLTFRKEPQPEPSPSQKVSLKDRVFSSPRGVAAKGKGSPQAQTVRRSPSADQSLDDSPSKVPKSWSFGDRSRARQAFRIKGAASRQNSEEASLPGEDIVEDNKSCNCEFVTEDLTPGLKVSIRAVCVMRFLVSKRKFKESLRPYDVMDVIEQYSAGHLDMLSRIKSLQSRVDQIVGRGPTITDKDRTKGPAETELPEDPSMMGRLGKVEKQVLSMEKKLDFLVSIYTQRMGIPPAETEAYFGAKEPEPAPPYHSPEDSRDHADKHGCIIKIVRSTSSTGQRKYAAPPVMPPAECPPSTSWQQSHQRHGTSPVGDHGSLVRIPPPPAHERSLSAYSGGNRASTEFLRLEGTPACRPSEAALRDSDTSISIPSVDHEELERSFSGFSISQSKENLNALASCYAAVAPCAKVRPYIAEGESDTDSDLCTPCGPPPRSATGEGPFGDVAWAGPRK
# Sequence of Bcl-2-like protein 1 (Q07817 whole entry, the tested form may be a part): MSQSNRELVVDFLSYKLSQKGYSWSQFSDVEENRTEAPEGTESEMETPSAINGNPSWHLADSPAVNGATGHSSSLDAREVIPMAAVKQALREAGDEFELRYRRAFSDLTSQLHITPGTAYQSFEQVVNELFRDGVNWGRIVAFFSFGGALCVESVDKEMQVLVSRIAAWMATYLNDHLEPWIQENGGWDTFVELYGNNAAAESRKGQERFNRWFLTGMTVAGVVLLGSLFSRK
# Sequence of Caspase-8 (Q14790 217-374 limits assumed): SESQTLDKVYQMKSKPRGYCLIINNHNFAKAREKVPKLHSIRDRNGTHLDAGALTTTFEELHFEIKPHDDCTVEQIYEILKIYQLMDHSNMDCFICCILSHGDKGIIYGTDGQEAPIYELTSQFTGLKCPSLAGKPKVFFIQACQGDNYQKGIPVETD
# Sequence of Caspase-8 (Q14790 385-479 limits assumed): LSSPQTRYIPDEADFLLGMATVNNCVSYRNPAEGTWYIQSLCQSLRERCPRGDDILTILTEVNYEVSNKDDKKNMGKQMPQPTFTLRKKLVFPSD
compound,measurement,setting,value
CN1CCN(C2=C(Cl)C(=O)N(c3cc(Cl)cc(Cl)c3)C2=O)CC1,IC50,[1],> 100 µM (not active)
same,IC50,Bcl-2-related protein A1 [2],1.66 µM (active)
same,IC50,Bcl-2-related protein A1 [3],2.44 µM (active)
O=C1NCCc2c1[nH]c1c(Cl)ccc(Cl)c21,IC50,[4],10.2 µM (not active)
Cc1ccc(NC(=O)C2CC2c2ccccc2)c([N+](=O)[O-])c1 (stereo not drawn),EC50,[5],11.4 µM (active)
CS(=O)(=O)c1nc(S(=O)(=O)c2ccc(Cl)cc2)c(N2CCC3(CC2)OCCO3)s1,EC50,[6],> 12 µM (not active)
same,EC50,[7],< 0.1 µM (active)
same,EC50,H4,> 120 µM (not active)
same,EC50,[8],> 12 µM (not active)
same,EC50,[9],0.71 µM (active)
COc1ccc(NC(=O)/C(=C/c2cccnc2)NC(=O)c2cccs2)cc1,IC50,[10],> 100 µM (inactive)
same,IC50,[11],> 100 µM (not active)
Cc1cccc(NC(=O)CNC(=O)c2cccc(-n3cccc3)c2)c1C,IC50,[12],8.77 µM (active)
same,IC50,Bcl-2-like protein 1,> 109 µM (not active)
same,IC50,[13],3.97 µM (active)
same,AC50,Caspase-6,1.55 µM (active)
same,AC50,Caspase-7,> 70 µM (inactive)
same,AC50,Caspase-8,> 70 µM (inactive)
COc1cccc(-c2csc3nnc(SCC(=O)c4ccc(NC(C)=O)cc4)n23)c1,IC50,[14],6.73 µM (active)
same,IC50,[15],4.9 µM (active)
same,IC50,[16],> 66.6 µM (inactive)
same,IC50,[17],10.6 µM (active)
CN(C)CCNc1c2c(c(C#N)c3nc4ccccc4n13)CCCC2,EC50,[18],< 0.1 µM (active)
same,EC50,[19],> 60 µM (not active)
same,IC50,cells [20],20.9 µM (active)
same,EC50,cells [21],0.11 µM (active)
c1ccc2c(c1)CSc1sccc1C2=C1CCNCC1,IC50,[22],1.71 µM (active)
O=c1c2c3c(sc2n2cnnc2n1Cc1ccccc1)CN(Cc1ccccc1)CC3,EC50,[23],12.9 µM (active)
same,EC50,[24],11.6 µM (active)
COCCNC(=O)CN(C)CC(=O)c1cc(C)n(Cc2ccccc2)c1C,EC50,[25],> 30 µM (not active)
CC1=C(C#N)C(=O)N(CCO)C(=O)/C1=N/Nc1ccc2c(c1)COC2=O,EC50,[26],> 100 µM (active)
same,EC50,[27],9.38 µM (active)
same,AC50,[28],9.69 µM (active)
Sc1nnc(-c2ccncc2)n1/N=C/c1cn(-c2ccccc2)nc1-c1ccccc1,EC50,Oxytocin receptor,> 29.9 µM (not active)
CN1CCN(CCCN2c3ccccc3Sc3ccc(Cl)cc32)CC1 [PROCHLORPERAZINE],CC50,Vero [29],29.4 µM (active)
same,IC50,Vero [30],19.1 µM (active)
same,IC50,[31],3.77 µM (active)
same,AC50,[32],4.93 µM (active)
